For two molecules, IC50 results are on record in patent US20130005741A1, “SUBSTITUTED PYRIMIDINE AS A PROSTAGLANDIN D2 RECEPTOR ANTAGONIST” (AVENTIS PHARMACEUTICALS INC., priority 2010, published 2013).

As usually defined, the IC50 is the concentration needed to halve the response being measured. Low values mean inhibition by little substance, high ones a need for much substance.

Structures are written as SMILES. Structures can show the parent of a compound that is named as a salt.

For this test, the target named is T1, human prostaglandin D2 receptor (DP) (Homo sapiens, UniProt Q13258).
T1 construct: endogenous in cells; host or cells: human platelets in platelet-rich plasma from donor blood
T1 sequence (Q13258 1-359): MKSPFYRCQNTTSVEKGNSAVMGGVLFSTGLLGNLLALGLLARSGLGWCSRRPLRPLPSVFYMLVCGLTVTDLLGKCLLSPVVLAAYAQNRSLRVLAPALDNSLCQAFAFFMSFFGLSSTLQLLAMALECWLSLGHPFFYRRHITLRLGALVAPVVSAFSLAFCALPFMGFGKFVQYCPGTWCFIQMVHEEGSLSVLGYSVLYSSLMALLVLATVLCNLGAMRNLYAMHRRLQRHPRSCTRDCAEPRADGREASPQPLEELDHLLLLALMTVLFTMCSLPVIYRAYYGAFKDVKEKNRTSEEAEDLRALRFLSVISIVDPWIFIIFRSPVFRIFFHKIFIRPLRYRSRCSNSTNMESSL
Put plainly: BW245C-induced cAMP accumulation in human platelet rich plasma (hPRP) by HTRF cAMP assay. The class given is cell-based. The following applies: inhibition of BW245C (25 nM)-induced cAMP accumulation in human platelet-rich plasma. The text has this:
Assessment of Antagonist Activities of Compounds on BW245C-Induced cAMP
Accumulation in Human Platelet Rich Plasma (hPRP) by HTRF cAMP Assay
The purpose of the assay is to assess compound antagonist activity at the human prostaglandin D2 receptor (DP), also known as (DP1), in the presence of plasma proteins. DP is a Gs-protein coupled receptor, the activation of which induces cAMP accumulation. BW245C is a DP selective agonist. Therefore, by measuring inhibition of BW245C-induced 3′-5′-cyclic adenosine monophosphate (cAMP) accumulation in human platelet-rich plasma (hPRP), the assay enables us to identify or confirm antagonist compounds at the human DP and/or IP receptors.
The principle of the assay is based on HTRF technology (Homogeneous Time-Resolved Fluorescence). The method is a competitive immunoassay between native cAMP produced by cells and the tracer cAMP labeled with the dye d2. The tracer is visualized by a monoclonal antibody anti-cAMP labeled with cryptate. The specific signal (i.e. energy transfer) is inversely related to the concentration of cAMP in the standards or samples. The assay was carried out using the cAMP HiRange HTRF kit from Cisbio (catalog number 62AM6PEB, 888-963-4567).
Preparation of Human Platelet Rich Plasma (hPRP): Human blood was obtained from sanofi-aventis on-site blood donor panel. […]
Background: cAMP levels reflect the balance of adenylyl cyclase and phosphodiesterase activity.

Take `COc1nc(NCCc2ccc(OC(F)(F)F)cc2)cc(N2CCC[C@H](CC(=O)O)C2)n1` (single isomer, unassigned) [(R) enantiomer]: the IC50 came to 155 nM.

In turn, `COc1nc(NCCc2ccc(OC(F)(F)F)cc2)cc(N2CCC[C@@H](CC(=O)O)C2)n1` [drawing 23, (S)1-{2-Methoxy-6-[2-(4-trifluoromethoxy-phenyl)-ethylamino]-pyrimidin-4-yl}-piperidin-3-yl)-acetic acid, phosphoric acid salt] returned an IC50 of 73 nM.
